Read-outs that look alike come from different tables or passages of the source. Square brackets hold non-standard residues; d marks the D form. Peptide text beside a SMILES is read from it. * marks the point of attachment. X1 = O=C(CSCC(=O)*)NCCN1C(=O)c2ccccc2C1=O; Aib = CC(C)(N)C(=O)O
How the values were obtained:
Assay type in all cases: cell-based
GLP-1R [1] = target: T1, GLP-1R (Homo sapiens, UniProt P43220); experiment: HitHunter cAMP assay (GLP-1R); conditions: cAMP; for Emax: read-out: (Emax) GLP-1R
T1 sequence (P43220 24-463): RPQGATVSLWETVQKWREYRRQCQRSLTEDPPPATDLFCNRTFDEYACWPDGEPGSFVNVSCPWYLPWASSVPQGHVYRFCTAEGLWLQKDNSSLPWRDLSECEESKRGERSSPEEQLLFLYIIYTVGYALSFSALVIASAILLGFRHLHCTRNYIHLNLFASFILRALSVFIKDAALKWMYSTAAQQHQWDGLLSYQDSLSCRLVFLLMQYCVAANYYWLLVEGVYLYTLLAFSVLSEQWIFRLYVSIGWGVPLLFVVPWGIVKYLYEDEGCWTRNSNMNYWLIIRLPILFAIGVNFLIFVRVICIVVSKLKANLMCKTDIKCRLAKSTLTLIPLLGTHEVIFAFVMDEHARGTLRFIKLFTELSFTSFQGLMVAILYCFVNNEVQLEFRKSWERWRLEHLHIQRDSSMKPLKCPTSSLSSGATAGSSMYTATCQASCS
Method in brief: (§1)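 Agonist stimulation lasts 30 min at room temperature on 10,000 cells per well, with phosphodiesterase blocked by 625 μM IBMX. Accumulated cAMP is quantified by competitive antibody luminescence after overnight development.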

GIP-R = target: T2, GIP-R (Homo sapiens, UniProt P48546); experiment: HitHunter cAMP assay (GIP-R); conditions: cAMP; for Emax: read-out: (Emax) GIP-R
T2 sequence (P48546 22-466): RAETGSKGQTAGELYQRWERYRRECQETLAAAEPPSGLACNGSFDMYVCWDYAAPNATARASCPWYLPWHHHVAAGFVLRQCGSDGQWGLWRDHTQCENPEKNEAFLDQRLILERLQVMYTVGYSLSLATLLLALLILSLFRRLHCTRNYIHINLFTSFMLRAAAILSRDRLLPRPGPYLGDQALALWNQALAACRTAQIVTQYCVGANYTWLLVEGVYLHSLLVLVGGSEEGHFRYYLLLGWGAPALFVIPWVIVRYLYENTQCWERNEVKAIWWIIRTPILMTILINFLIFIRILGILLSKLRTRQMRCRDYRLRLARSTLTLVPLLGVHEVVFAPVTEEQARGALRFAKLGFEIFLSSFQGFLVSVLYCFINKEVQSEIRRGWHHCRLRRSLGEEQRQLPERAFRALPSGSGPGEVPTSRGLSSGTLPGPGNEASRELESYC
Method in brief: as §1

GLP-1R [2] = target: T1, GLP-1R; experiment: PathHunter β-arrestin assay
Method in brief: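 Recruitment of β-arrestin is measured by luminescence after cells, plated overnight, receive serially diluted agonist for 90 min at 37 °C in medium with 0.2% BSA. Detection reagent then develops for 3 h at room temperature, protected from light.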

[3] = Table 3, read-out: EC50 GLP-1R/nM
[4] = Table 3A, read-out: EC50 GLP-1R/nM
[5] = Table 3, read-out: EC50 GIP-R/nM
[6] = Table 3A, read-out: EC50 GIP-R/nM
[7] = PathHunter β-arrestin assay, read-out: β-arrestin activity EC50

Row | Structure (SMILES) | EC50 (GLP-1R [1]; EC50 GLP-1R/nM, Table 3) [nM] | EC50 (GLP-1R [1]; EC50 GLP-1R/nM, Table 3A) [nM] | Emax (GLP-1R [1]; Table 3) [%] | Emax (GLP-1R [1]; Table 3A) [%] | EC50 (GIP-R; EC50 GIP-R/nM, Table 3) [nM] | EC50 (GIP-R; EC50 GIP-R/nM, Table 3A) [nM] | Emax (GIP-R; Table 3) [%] | Emax (GIP-R; Table 3A) [%] | EC50 (GLP-1R [2]) [nM] | EC50 (GLP-1R [1]; [3]) [nM] | EC50 (GLP-1R [1]; [4]) [nM] | EC50 (GIP-R; [5]) [nM] | EC50 (GIP-R; [6]) [nM] | EC50 (GLP-1R [2]; [7]) [nM]
1 | CC[C@H](C)[C@H](NC(=O)[C@H](CO)NC(=O)[C@H](CC(C)C)NC(=O)[C@H](CC(=O)O)NC(=O)[C@H](CO)NC(=O)[C@@H](NC(=O)[C@H](Cc1ccccc1)NC(=O)[C@@H](NC(=O)CNC(=O)[C@H](CCC(=O)O)NC(=O)CSCC(=O)NCCN1C(=O)c2ccccc2C1=O)[C@@H](C)O)[C@@H](C)O)C(=O)N[C@@H](Cc1ccc(O)cc1)C(=O)N[C@@H](CC(C)C)C(=O)N[C@@H](CC(=O)O)C(=O)N[C@@H](CCCCN)C(=O)N[C@@H](CCC(N)=O)C(=O)N[C@@H](C)C(=O)N[C@@H](C)C(=O)NC(C)(C)C(=O)N[C@@H](CCC(=O)O)C(=O)N[C@@H](Cc1ccccc1)C(=O)N[C@H](C(=O)N[C@@H](CC(N)=O)C(=O)N[C@@H](Cc1c[nH]c2ccccc12)C(=O)N[C@@H](CC(C)C)C(=O)N[C@@H](CC(C)C)C(=O)N[C@@H](C)C(=O)NCC(=O)NCC(=O)N1CCC[C@H]1C(=O)N[C@@H](CO)C(=O)N[C@@H](CO)C(=O)NCC(=O)N[C@@H](C)C(=O)N1CCC[C@H]1C(=O)N1CCC[C@H]1C(=O)N1CCC[C@H]1C(=O)N[C@@H](CO)C(=O)N[C@@H](CCCCN)C(N)=O)C(C)C [Compound 151] (X1-EGTFTSDLSIYLDKQAA[Aib]EFVNWLLAGGPSSGAPPPSK-NH2) | 1 to 10 | 1 to 10 | 103 to 107 | 103 to 107 | 0.1 to 1 | 0.1 to 1 | 117 to 119 | 117 to 119 | > 1000 |  |  |  |  | 
2 | CC[C@H](C)[C@H](NC(=O)[C@H](CO)NC(=O)[C@H](Cc1ccc(O)cc1)NC(=O)[C@H](CC(=O)O)NC(=O)[C@H](CO)NC(=O)[C@@H](NC(=O)[C@H](Cc1ccccc1)NC(=O)[C@@H](NC(=O)CNC(=O)[C@H](CCC(=O)O)NC(=O)CSCC(=O)NCCN1Cc2ccccc2C1=O)[C@@H](C)O)[C@@H](C)O)C(=O)N[C@@H](Cc1ccc(O)cc1)C(=O)N[C@@H](CC(C)C)C(=O)N[C@@H](CC(=O)O)C(=O)N[C@@H](CCCCN)C(=O)N[C@@H](CCC(N)=O)C(=O)N[C@@H](C)C(=O)N[C@@H](C)C(=O)NC(C)(C)C(=O)N[C@@H](CCC(=O)O)C(=O)N[C@@H](Cc1ccccc1)C(=O)N[C@H](C(=O)N[C@@H](CC(N)=O)C(=O)N[C@@H](Cc1c[nH]c2ccccc12)C(=O)N[C@@H](CC(C)C)C(=O)N[C@@H](CC(C)C)C(=O)N[C@@H](C)C(=O)NCC(=O)NCC(=O)N1CCC[C@H]1C(=O)N[C@@H](CO)C(=O)N[C@@H](CO)C(=O)NCC(=O)N[C@@H](C)C(=O)N1CCC[C@H]1C(=O)N1CCC[C@H]1C(=O)N1CCC[C@H]1C(=O)N[C@@H](CO)C(=O)N[C@@H](CCCCN)C(N)=O)C(C)C [Compound 152] | 10 to 100 | 10 to 100 | 85 | 85 | 1 to 10 | 1 to 10 | 103 | 103 | > 1000 |  |  |  |  | 
3 | CC[C@H](C)[C@H](NC(=O)[C@H](CO)NC(=O)[C@H](Cc1ccc(O)cc1)NC(=O)[C@H](CC(=O)O)NC(=O)[C@H](CO)NC(=O)[C@@H](NC(=O)[C@H](Cc1ccccc1)NC(=O)[C@@H](NC(=O)CNC(=O)[C@H](CCC(=O)O)NC(=O)C(C)(C)C(=O)NCCN1C(=O)CSC1=O)[C@@H](C)O)[C@@H](C)O)C(=O)N[C@@H](Cc1ccc(O)cc1)C(=O)N[C@@H](CC(C)C)C(=O)N[C@@H](CC(=O)O)C(=O)N[C@@H](CCCCN)C(=O)N[C@@H](CCC(N)=O)C(=O)N[C@@H](C)C(=O)N[C@@H](C)C(=O)NC(C)(C)C(=O)N[C@@H](CCC(=O)O)C(=O)N[C@@H](Cc1ccccc1)C(=O)N[C@H](C(=O)N[C@@H](CC(N)=O)C(=O)N[C@@H](Cc1c[nH]c2ccccc12)C(=O)N[C@@H](CC(C)C)C(=O)N[C@@H](CC(C)C)C(=O)N[C@@H](C)C(=O)NCC(=O)NCC(=O)N1CCC[C@H]1C(=O)N[C@@H](CO)C(=O)N[C@@H](CO)C(=O)NCC(=O)N[C@@H](C)C(=O)N1CCC[C@H]1C(=O)N1CCC[C@H]1C(=O)N1CCC[C@H]1C(=O)N[C@@H](CO)C(=O)N[C@@H](CCCCN)C(N)=O)C(C)C [Compound 153] |  |  | 107 | 107 |  |  | 75 to 85 | 75 to 85 |  | < 0.1 | < 0.1 | 10 to 100 | 10 to 100 | 10 to 1000
4 | CC[C@H](C)[C@H](NC(=O)[C@H](CO)NC(=O)[C@H](Cc1ccc(O)cc1)NC(=O)[C@H](CC(=O)O)NC(=O)[C@H](CO)NC(=O)[C@@H](NC(=O)[C@H](Cc1ccccc1)NC(=O)[C@@H](NC(=O)CNC(=O)[C@H](CCC(=O)O)NC(=O)CCCNC(=O)CCN1C(=O)c2ccccc2C1=O)[C@@H](C)O)[C@@H](C)O)C(=O)N[C@@H](Cc1ccc(O)cc1)C(=O)N[C@@H](CC(C)C)C(=O)N[C@@H](CC(=O)O)C(=O)N[C@@H](CCCCN)C(=O)N[C@@H](CCC(N)=O)C(=O)N[C@@H](C)C(=O)N[C@@H](C)C(=O)NC(C)(C)C(=O)N[C@@H](CCC(=O)O)C(=O)N[C@@H](Cc1ccccc1)C(=O)N[C@H](C(=O)N[C@@H](CC(N)=O)C(=O)N[C@@H](Cc1c[nH]c2ccccc12)C(=O)N[C@@H](CC(C)C)C(=O)N[C@@H](CC(C)C)C(=O)N[C@@H](C)C(=O)NCC(=O)NCC(=O)N1CCC[C@H]1C(=O)N[C@@H](CO)C(=O)N[C@@H](CO)C(=O)NCC(=O)N[C@@H](C)C(=O)N1CCC[C@H]1C(=O)N1CCC[C@H]1C(=O)N1CCC[C@H]1C(=O)N[C@@H](CO)C(=O)N[C@@H](CCCCN)C(N)=O)C(C)C [Compound 154] |  |  | 80 | 80 |  |  | 78 | 78 |  | 1 to 10 | 1 to 10 | 1 to 10 | 1 to 10 | > 1000
5 | CCCCCCCCCCCCCCCC(=O)N[C@@H](CCC(=O)NCCCC[C@H](NC(=O)[C@H](CO)NC(=O)[C@@H]1CCCN1C(=O)[C@@H]1CCCN1C(=O)[C@@H]1CCCN1C(=O)[C@H](C)NC(=O)CNC(=O)[C@H](CO)NC(=O)[C@H](CO)NC(=O)[C@@H]1CCCN1C(=O)CNC(=O)CNC(=O)[C@H](C)NC(=O)[C@H](CC(C)C)NC(=O)[C@H](CC(C)C)NC(=O)[C@H](Cc1c[nH]c2ccccc12)NC(=O)[C@H](CC(N)=O)NC(=O)[C@@H](NC(=O)[C@H](Cc1ccccc1)NC(=O)[C@H](CCC(=O)O)NC(=O)C(C)(C)NC(=O)[C@H](C)NC(=O)[C@H](C)NC(=O)[C@H](CCC(N)=O)NC(=O)[C@H](CCCCN)NC(=O)[C@H](CC(=O)O)NC(=O)[C@H](CC(C)C)NC(=O)[C@H](Cc1ccc(O)cc1)NC(=O)[C@@H](NC(=O)[C@H](CO)NC(=O)[C@H](Cc1ccc(O)cc1)NC(=O)[C@H](CC(=O)O)NC(=O)[C@H](CO)NC(=O)[C@@H](NC(=O)[C@H](Cc1ccccc1)NC(=O)[C@@H](NC(=O)CNC(=O)[C@H](CCC(=O)O)NC(=O)CCCC(=O)NCCN1C(=O)CSC1=O)[C@@H](C)O)[C@@H](C)O)[C@@H](C)CC)C(C)C)C(N)=O)C(=O)O [Compound 155] |  |  | 102 | 102 |  |  | 80 | 80 |  | 0.1 to 1 | 0.1 to 1 | 1 to 10 | 1 to 10 | > 1000
6 | CC[C@H](C)[C@H](NC(=O)[C@H](CO)NC(=O)[C@H](Cc1ccc(O)cc1)NC(=O)[C@H](CC(=O)O)NC(=O)[C@H](CO)NC(=O)[C@@H](NC(=O)[C@H](Cc1ccccc1)NC(=O)[C@@H](NC(=O)CNC(=O)[C@H](CCC(=O)O)NC(=O)CSCC(=O)NCCN1C(=O)c2ccc(C)cc2C1=O)[C@@H](C)O)[C@@H](C)O)C(=O)N[C@@H](Cc1ccc(O)cc1)C(=O)N[C@@H](CC(C)C)C(=O)N[C@@H](CC(=O)O)C(=O)N[C@@H](CCCCN)C(=O)N[C@@H](CCC(N)=O)C(=O)N[C@@H](C)C(=O)N[C@@H](C)C(=O)NC(C)(C)C(=O)N[C@@H](CCC(=O)O)C(=O)N[C@@H](Cc1ccccc1)C(=O)N[C@H](C(=O)N[C@@H](CC(N)=O)C(=O)N[C@@H](Cc1c[nH]c2ccccc12)C(=O)N[C@@H](CC(C)C)C(=O)N[C@@H](CC(C)C)C(=O)N[C@@H](C)C(=O)NCC(=O)NCC(=O)N1CCC[C@H]1C(=O)N[C@@H](CO)C(=O)N[C@@H](CO)C(=O)NCC(=O)N[C@@H](C)C(=O)N1CCC[C@H]1C(=O)N1CCC[C@H]1C(=O)N1CCC[C@H]1C(=O)N[C@@H](CO)C(=O)N[C@@H](CCCCN)C(N)=O)C(C)C [Compound 156] | 1 to 10 | 1 to 10 | 95 to 100 | 95 to 100 | < 0.1 | < 0.1 | 116 to 118 | 116 to 118 | > 1000 |  |  |  |  | 
